Results on 19 compounds are retold here after ChEMBL document CHEMBL1136294, “Aryloxazolidinediones: identification of potent orally active PPAR dual alpha/gamma agonists” (Bioorg Med Chem Lett, 2003).

In data set [1] the target is T1, Peroxisome proliferator-activated receptor delta (Homo sapiens, UniProt Q03181).
T1 sequence (Q03181 whole entry): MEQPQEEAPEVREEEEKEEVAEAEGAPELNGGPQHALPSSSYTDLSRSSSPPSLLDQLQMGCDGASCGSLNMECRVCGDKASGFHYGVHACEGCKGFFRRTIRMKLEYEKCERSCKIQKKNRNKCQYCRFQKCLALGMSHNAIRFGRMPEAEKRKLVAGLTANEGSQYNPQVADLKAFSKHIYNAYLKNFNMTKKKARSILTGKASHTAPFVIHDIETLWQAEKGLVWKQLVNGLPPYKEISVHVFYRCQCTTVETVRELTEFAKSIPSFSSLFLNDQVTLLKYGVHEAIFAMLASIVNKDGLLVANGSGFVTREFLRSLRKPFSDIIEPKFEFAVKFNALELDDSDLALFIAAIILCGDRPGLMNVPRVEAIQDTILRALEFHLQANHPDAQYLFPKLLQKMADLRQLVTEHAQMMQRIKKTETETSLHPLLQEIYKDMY
Description: In vitro binding affinity was tested towards human Peroxisome proliferator activated receptor delta

For data set [2], the target named is T1, Peroxisome proliferator-activated receptor delta. The data set is classed as functional.
Description: In vitro activity in human Peroxisome proliferator activated receptor delta-transactivation assay
The species named for data set [3] is Rattus norvegicus. Particulars: in vivo.
Description: Area under curve in SD rats
Data set [4] is described as follows: in vivo. Particulars: Sprague-Dawley, rat, po.
Description: Oral bioavailability in rat (Sprague-Dawley)
The target of data set [5] is T2, Peroxisome proliferator-activated receptor alpha (Homo sapiens, UniProt Q07869).
T2 sequence (Q07869 whole entry): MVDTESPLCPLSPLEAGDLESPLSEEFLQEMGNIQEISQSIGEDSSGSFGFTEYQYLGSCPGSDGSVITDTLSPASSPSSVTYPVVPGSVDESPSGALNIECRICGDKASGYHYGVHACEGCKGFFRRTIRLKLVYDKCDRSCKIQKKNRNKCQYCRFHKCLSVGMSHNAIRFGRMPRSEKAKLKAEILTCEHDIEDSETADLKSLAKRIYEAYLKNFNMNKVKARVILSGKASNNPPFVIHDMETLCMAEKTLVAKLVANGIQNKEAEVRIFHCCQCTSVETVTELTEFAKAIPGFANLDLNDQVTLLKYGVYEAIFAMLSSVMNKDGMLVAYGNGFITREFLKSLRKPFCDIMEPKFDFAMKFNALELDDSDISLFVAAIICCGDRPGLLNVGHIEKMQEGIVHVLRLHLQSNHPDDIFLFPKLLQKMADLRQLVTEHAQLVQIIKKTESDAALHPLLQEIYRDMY
The data set is classed as functional.
Description: In vitro activity in human Peroxisome proliferator activated receptor alpha-transactivation assay

For data set [6], the target named is T2, Peroxisome proliferator-activated receptor alpha.
Description: In vitro binding affinity was tested towards human Peroxisome proliferator activated receptor alpha
The species named for data set [7] is Rattus norvegicus. Particulars: in vivo, po.
Description: Area under curve for a 2-mpk po dose in SD rats
Data set [8] can be described thus: in vivo. Particulars: Sprague-Dawley, rat.
Description: Half life period in SD rats
Data set [9] can be described thus: in vivo. Conditions: Sprague-Dawley, rat, po, 2 mg/kg.
Description: Clearance in Sprague-Dawley rats after 2mg/kg oral dose

In general, IC50 refers to the concentration that inhibits the measured activity by half. Low readings indicate higher potency, high ones lower potency. What is called EC50 is the concentration that produces a half-maximal response. High values mean lower potency in that assay, low ones higher potency in that assay. Broadly, the bioavailability is dose-corrected exposure relative to a reference, in per cent. Low values mean little systemic uptake, high ones much systemic uptake. As a reminder, the half-life is the time needed for the level to fall by half in the phase considered. Read a high half-life as slow decline. By CL/F is commonly meant clearance divided by bioavailability, as obtained after extravascular dosing.

Turning to `CCCc1cc(OC2CCCCC2)ccc1OCCCOc1cccc(C2SC(=O)NC2=O)c1` (stereo unspecified), the half-inhibitory concentration (IC50) in data set [1] is > 50 µM. Moreover, the EC50 in data set [2] was > 3 µM. This compound also had an AUC in the data set listed under Rattus norvegicus [3] of 0.3 µM. The bioavailability in “in vivo [4]” is 10%.
As for `CCCc1cc(C2CCC(O)CC2)ccc1OCCCOc1cccc(C2OC(=O)NC2=O)c1` (stereo unspecified), the IC50 in data set [1] was > 50 µM.
The same measure, in the same setting: to `CCCc1cc(C2CCCC2)ccc1OCCCOc1cccc(C2OC(=O)NC2=O)c1` (stereo unspecified) belongs 3.85 µM.
`CCCc1cc(C2CCC(C)(C)CC2)ccc1OCCCOc1cccc(C2OC(=O)NC2=O)c1` (stereo unspecified): the IC50 in [1] was > 50 µM. In [2], the 50% effective concentration (EC50) is > 3 µM.
The matching figures for `CCCc1cc(C(=O)c2ccc(Cl)cc2)ccc1OCCCOc1cccc(C2SC(=O)NC2=O)c1` (stereo unspecified): > 50 µM and > 3 µM.
Regarding `CCCc1ccccc1OCCCOc1cccc(C2OC(=O)NC2=O)c1` (stereo unspecified), the half-maximal inhibitory concentration (IC50) in data set [1] was > 5 µM; in data set [6], 0.08 µM. For the same compound, the values for the EC50 in data set [2] and in data set [5] were > 3 µM and 0.053 µM, respectively. The same compound displayed an AUC in the data set filed under Rattus norvegicus [7] of 1.1 µM. The same compound registered a bioavailability in the data set “in vivo [4]” of 27%. The same compound gave a half-life in the data set “in vivo [8]” of 3.6 h.
Turning to `CCCc1cc(OC2CCCCCC2)ccc1OCCCOc1cccc(C2SC(=O)NC2=O)c1` (stereo unspecified), the concentration for half-maximal inhibition (IC50) in [1] is > 50 µM.
In the case of `CCCc1cc(-c2noc3ccccc23)ccc1OCCCOc1cccc(C2SC(=O)NC2=O)c1` (stereo unspecified), in [1], inhibition was half-maximal at 0.14 µM (IC50).
In the case of `CCCc1cc(C2CCCCC2)ccc1OCCCOc1cccc(C2OC(=O)NC2=O)c1` (stereo unspecified), the IC50 in [1] was > 50 µM. The 50% effective concentration (EC50) in [2] was > 3 µM.
In the case of `CCCc1cc(C(=O)c2ccccc2)ccc1OCCCOc1cccc(C2SC(=O)NC2=O)c1` (stereo unspecified), in data set [1], 0.17 µM corresponded to half-maximal inhibition (IC50). Further, the EC50 in [2] is > 3 µM.
In data set [1], `CCCc1cc(-c2ccccc2)ccc1OCCCOc1cccc(C2OC(=O)NC2=O)c1` (stereo unspecified) yielded an IC50 of 1.51 µM. Moreover, the EC50 in data set [2] was > 3 µM.
Take `CCCc1cc(C2CCC(=O)CC2)ccc1OCCCOc1cccc(C2OC(=O)NC2=O)c1` (stereo unspecified): the IC50 in [1] was > 50 µM.
With `CCCc1cc(C=C2CCCCC2)ccc1OCCCOc1cccc(C2SC(=O)NC2=O)c1` (stereo unspecified), the 50% inhibitory concentration (IC50) in [1] is > 50 µM. Further, the half-maximal effective concentration (EC50) in [2] was > 3 µM.
Take `CCCc1cc(CC2CCCCC2)ccc1OCCCOc1cccc(C2SC(=O)NC2=O)c1` (stereo unspecified): the IC50 in [1] was > 50 µM. The EC50 in [2] was > 3 µM.
In the same order, the values of `CCCc1cc(C2CCCCCC2)ccc1OCCCOc1cccc(C2OC(=O)NC2=O)c1` (stereo unspecified) are > 50 µM and > 3 µM.
For the compound `CCCc1cc(C(=O)C2CCCCC2)ccc1OCCCOc1cccc(C2SC(=O)NC2=O)c1` (stereo unspecified), the IC50 in [1] is > 50 µM. Further, the 50% effective concentration (EC50) in [2] is > 3 µM. Further, in the data set filed under Rattus norvegicus [3], the AUC was 0.07 µM. Moreover, the bioavailability in “in vivo [4]” turned out to be 7.8%. The compound further yielded a CL/F in the data set “in vivo [9]” of 1.77 L/h/kg.
On to `CCCc1cc(C2CCOCC2)ccc1OCCCOc1cccc(C2OC(=O)NC2=O)c1` (stereo unspecified), for which the 50% inhibitory concentration (IC50) in data set [1] was > 50 µM.
Turning to `CCCc1cc(C2CCC(F)(F)CC2)ccc1OCCCOc1cccc(C2OC(=O)NC2=O)c1` (stereo unspecified), the IC50 in [1] is > 50 µM. In data set [2], the EC50 is > 3 µM.
Consider `CCCc1cc(OC2CCCC2)ccc1OCCCOc1cccc(C2SC(=O)NC2=O)c1` (stereo unspecified), for which the IC50 in [1] worked out at 0.92 µM.
